In PMC9455983 (International Journal of Molecular Sciences, 2022):
Entries after “also recorded” stand apart in the source; their conditions may differ. Read-outs that look alike come from different tables or passages of the source.

Assays:
mu-opioid receptor (MOR) = biological target: T1, mu-opioid receptor (MOR) (Rattus norvegicus, UniProt P33535); test: MOR radioligand competition binding assay ([3H]-DAMGO); conditions: Mu screening results
T1 construct: Rat cortices were homogenized using 50 mM Tris, pH 7.4, and centrifuged at 16,500 rpm for 10 min; from tissue; host or cells: rat cortex membranes
Outline: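 Rat cortical membranes in 50 mM Tris pH 7.4 with 2 mg/mL bovine serum were incubated with 2 nM [3H]-DAMGO and test compound. Bound radioligand was separated by filtration on BSA-soaked GF/B filters and counted by scintillation. Values are mean ± SD of two experiments, each in duplicate.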

[1] = biological target: T2, kappa-opioid receptor (KOR) (Cavia porcellus, UniProt P41144); test: KOR radioligand competition binding assay ([3H]U69,593); set-up: species or system guinea pig; conditions: Kappa screening results
T2 construct: Guinea pig cortices and cerebella were homogenized using 50 mM Tris, pH 7.4; from tissue; host or cells: guinea pig cortex and cerebellum membranes
Outline: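 Guinea pig cortex and cerebellum homogenates in 50 mM Tris pH 7.4 with 10 mM MgCl2, 2 nM [3H]U69,593, 2 h at 25 °C. Unlabeled U50,488 gave the standard curve and nonspecific binding. Filtration on BSA-soaked GF/B filters, scintillation counting; two replicates, repeated twice, mean ± SD.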

[2] = biological target: T3, delta-opioid receptor (DOR) (Rattus norvegicus, UniProt P33533); test: DOR radioligand competition binding assay ([3H]-DPDPE); conditions: Delta screening results
T3 construct: Rat cortices were homogenized using 50 mM Tris, pH 7.4, 10 mM MgCl2-6H2O, 200 µM PMSF; from tissue; host or cells: rat cortex membranes
Outline: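 Competition binding on rat cortical homogenate in 50 mM Tris pH 7.4, 10 mM MgCl2, 200 µM PMSF with 2 nM [3H]-DPDPE, 2.5 h at 25 °C. Unlabeled DPDPE defined nonspecific binding; filtration onto BSA-soaked GF/B filters, scintillation counting. Mean ± SD of two experiments in duplicate.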

C57BL/6J mice [3] = test: 55 °C warm-water tail-withdrawal assay (antinociception); format: in vivo, mouse
Protocol: For intracerebroventricular (i.c.v.) administration, the 1968-series compounds were dissolved in dimethyl sulfoxide (DMSO), followed by the addition of sterile saline (0.9%) so that the final vehicle was 50% DMSO and 50% saline, and the i.c.v. injections were performed as described previously. For per os (p.o.) administration, 1968-4 and 1968-22 were administered in 10% Ethanol/10%Tween-80/80% 0.9% saline. All solutions for animal administration were prepared fresh daily.
Antinociception was calculated according to the following formula: % antinociception = 100 × (test latency − control latency)/(15 − control latency). Tail-withdrawal data points are the means of 8–16 mice, unless otherwise indicated, with SEM shown by error bars.
All dose–response lines were analyzed by regression, and ED50 (effective dose producing 50% antinociception) values and 95% confidence intervals (C.I.) were determined using individual data points from graded dose–response curves with Prism 8.0 software (GraphPad, La Jolla, CA, USA). Percent antinociception was used to determine within group effects and to allow comparison to baseline latency in tail-withdrawal experiments. The statistical significance of differences between ED50 values was determined by evaluation of the ED50 value shift via nonlinear regression modeling with Prism software. Significant differences in behavioral data were analyzed by ANOVA (one-way or two-way with repeated measures (RM), as appropriate). Significant results were further analyzed with Sidak’s, Tukey’s, or Dunnett’s multiple comparison post hoc tests, as appropriate. Data for conditioned place preference experiments were analyzed by two-way RM ANOVA, with analyses examining the main effect of the conditioned place preference phase (e.g., pre- or post-conditioning) and the interaction of drug pretreatment. Significant effects were further analyzed using Sidak’s HSD post hoc testing. All data are presented as mean ± SEM, with significance set at p < 0.05.

C57BL/6J mice [4] = test: Opioid receptor involvement in antinociception (antagonist pretreatment, tail-withdrawal assay); format: in vivo, mouse
Protocol: Pretreatment of mice with the opioid antagonist naloxone (10 mg/kg, s.c., −15 min) was used to assess receptor contribution to the observed antinociception induced by maximal tested doses of each 1968-series compound tested.
The opioid receptor involvement in the agonist activity of the heterocyclic peptidomimetics was determined by pretreating mice with a single dose of β-funaltrexamine (β-FNA, 10 mg/kg, i.p.) or nor-BNI (10 mg/kg, i.p.) 24 h in advance of administration of a dose of 1968-series compound.

[5] = LC-MS/MS analysis of blood and perfused brain after i.v. administration; format: in vivo, mouse
Protocol: To assess the stability of 1968-22 in plasma and evaluate CNS penetration, blood and perfused brains were collected from mice 5, 15, and 30 min after (i.v.) administration of the bis-cyclic guanidine (10 mg/kg, i.v.).
Figure 5 LC-MS/MS analysis of 1968-22 ([…].) in blood and brain samples isolated from treated mice over 30 min. Control mice received vehicle (10% Ethanol/10%Tween-80/80% 0.9% saline) and were harvested immediately. Points are mean AUC ± SEM for the summed ion extracted chromatographs of 1968-22 from three mice/time points.

C57BL/6J mice [6] = test: Opioid antagonist activity of 1968-22 against opioid agonists (tail-withdrawal assay)
[7] = experiment 1, unit inferred, read-out: Ki (Exp 1)
[8] = experiment 2, unit inferred, read-out: Ki (Exp 2)
[9] = mean of two experiments, read-out: Ki

## Cc1cc(O)cc(C)c1C[C@H]1CN([C@@H](Cc2c(C)cc(O)cc2C)CN2C(=N)NC[C@@H]2C)C(=N)N1 [1968-22]
mu-opioid receptor (MOR); [7]
  Ki: 7.68 nM
mu-opioid receptor (MOR); [8]
  Ki: 7.31 nM
mu-opioid receptor (MOR); mean of Exp 1 and Exp 2, unit inferred, read-out: MEAN (Ki)
  Ki: 7.49 nM
mu-opioid receptor (MOR); [9]
  Ki: 7 nM
[1]; [7]
  Ki: 195 nM
[1]; [8]
  Ki: 242 nM
[1]; [9]
  Ki: 218 nM
[2]; first Ki column, unit not printed (apparently M), read-out: Ki (first column)
  Ki: 260 nM
[2]; mean of both Ki, unit inferred, read-out: MEAN (Ki)
  Ki: 265 nM
[2]; [9]
  Ki: 265 nM
[2]; second Ki column, unit not printed (apparently M), read-out: Ki (second column)
  Ki: 271 nM
C57BL/6J mice [3]; 10 mg/kg, p.o.
  antinociception after oral administration (in words): significant antinociception
C57BL/6J mice [3]; i.c.v.
  time of peak antinociception after i.c.v. administration: 20 min
C57BL/6J mice [3]; i.c.v., antinociception at peak response, mice, * ED50 estimated where maximum antinociception not achieved
  ED50 (and 95% Confidence Interval (C.I.)) Values, i.c.v. (nmol): 0.011 (0.005–0.026) nmol
C57BL/6J mice [3]; i.c.v., maximum doses tested
  duration of significant antinociception: 70 min
C57BL/6J mice [4]; naloxone 10 mg/kg, s.c., −15 min, maximal tested i.c.v. dose of compound
  effect of naloxone pretreatment on antinociception: most susceptible to antagonism by naloxone; also recorded: blocked fully
C57BL/6J mice [4]; naltrindole 20 mg/kg, i.p., −20 min, 1968-16 30 nmol or 1968-22 0.3 nmol, i.c.v.
  effect of naltrindole (DOR antagonist) pretreatment on antinociception: significantly antagonized
C57BL/6J mice [4]; nor-BNI 10 mg/kg, i.p., −24 h, 1968-16 30 nmol or 1968-22 0.3 nmol, i.c.v.
  effect of nor-BNI (KOR antagonist) pretreatment on antinociception: significantly antagonized
C57BL/6J mice [4]; β-FNA 10 mg/kg, i.p., −24 h, 1968-16 30 nmol or 1968-22 0.3 nmol, i.c.v.
  effect of β-FNA (MOR antagonist) pretreatment on antinociception: significantly antagonized
[5]; 10 mg/kg
  time detectable / stable in blood after i.v. administration: at least 30 min
[5]; 10 mg/kg, 5, 15 and 30 min
  levels in perfused brain by LC-MS/MS: negligible levels
[5]; 10 mg/kg, within 5 min of administration
  detection in serum by LC-MS/MS: readily detected
C57BL/6J mice [6]; 2.5 h pretreatment, 0.3 nmol i.c.v., SNC-80 100 nmol, i.c.v.
  antagonism of SNC-80-induced antinociception: significantly antagonized
C57BL/6J mice [6]; 2.5 h pretreatment, 0.3 nmol i.c.v., morphine 10 mg/kg, i.p.
  antagonism of morphine-induced antinociception: did not have an effect
C57BL/6J mice [6]; i.c.v. pretreatment, SNC-80 100 nmol, i.c.v.
  pretreatment dose giving maximal antagonism of SNC-80: 3 nmol
